Results reported in article PMC7445428, “Simplified dolutegravir dosing for children with HIV weighing 20 kg or more: pharmacokinetic and safety substudies of the multicentre, randomised ODYSSEY trial” (The Lancet. HIV, 2020).
Where two headings read alike, the source gives them in different places. Marks after values point to notes of the source that are not given here.

Columns and labels:
[1] = parameters: method as in PMID 22183173; details: adult healthy volunteers, cited from earlier work
[2] = parameters: species or system human
Method: The pharmacokinetic substudy for children weighing 25 kg to less than 40 kg was a within-subject, two-period, fixed-order, pharmacokinetic study with paediatric dolutegravir doses approved by the SRAs at the time of the study used in the first period and a higher (adult) dose of 50 mg as film-coated tablet in the second period. A child first completed 24-h intensive pharmacokinetic sampling after at least 1 week of receiving 25 mg film-coated tablets if they were in the 25 kg to less than 30 kg weight band or 35 mg (one 10 mg and one 25 mg film-coated tablet) if they were in the 30 to less than 40 kg weight band. The second 24-h pharmacokinetic profile was taken at least 1 week after the switch to a daily 50 mg film-coated tablet.
In a parallel pharmacokinetic substudy, children weighing 20 kg to less than 25 kg had 24-h intensive pharmacokinetic profiling on the once-daily dose of dolutegravir 25 mg film-coated tablet (part one). After review of the results, we did a subsequent substudy (part two) in children weighing 20 to less than 25 kg, investigating higher dolutegravir doses to achieve better exposures. On the basis of results of part one and to simplify dosing and future access to formulations, we studied the 50 mg adult film-coated tablet. Because we were concurrently investigating dispersible dolutegravir tablets in children weighing less than 20 kg (not reported here), we also studied a 30 mg dose given as six 5 mg dispersible tablets, which is bioequivalent to a 50 mg film-coated tablet,[16] as an option for children unable to swallow adult tablets. Dolutegravir 50 mg film-coated tablet or 30 mg dispersible tablet formulations were allocated by site. This substudy primarily enrolled children who had not participated in part one because children initially recruited in this weight band had gained weight and were no longer in the weight band.
To achieve steady-state, children attended their pharmacokinetic study visit day at least 7 days after starting on the investigated dolutegravir dose. We ascertained medication adherence during the last 3 days before the day of pharmacokinetic assessment to ensure that no doses had been missed. To construct a dolutegravir plasma concentration-time profile, blood samples of 2 mL were taken at baseline and 1, 2, 3, 4, 6, and 24 h after observed dolutegravir intake with 100 mL of water. To conform with adult comparator studies, participants fasted at least 3 h before dolutegravir intake, although an overnight fast was preferred. Dispersible tablets were dispersed in a small amount of water and immediately taken, followed by an additional intake of water up to a volume of 100 mL. We allowed no medications, other than nucleoside reverse transcriptase inhibitors, within 2 h after dolutegravir intake. Children fasted 2 h after dolutegravir intake before having a light breakfast (containing approximately 250 calories). During pharmacokinetic assessment days all food was provided at set times.
We refrigerated blood samples within 10 min and centrifuged them within 24 h of collection. Plasma was separated and stored at −80°C until shipping to the laboratory of the Department of Pharmacy, Radboudumc, Nijmegen, Netherlands for quantification with a validated liquid chromatography tandem mass spectrometry bioanalytical quantification method (lower limit of quantification of 0·01 mg/L).[18]
We included all participants consenting to inclusion in the pharmacokinetic substudies in the safety analyses. For the pharmacokinetic analyses, we considered haemolysed samples non-evaluable and excluded pharmacokinetic profiles if treatment non-adherence was likely (predefined when a predose concentration [C0] was >15 times below the concentration 24 h after observed drug intake (trough concentration [Ctrough]), if protocol violations had occurred, or if concomitant medications known to affect dolutegravir drug concentrations had been used. […]

[3] = tested on: plasma HIV-1 RNA; parameters: method as in PMID 22018760; details: adults, 96 weeks, cited from earlier work
[4] = Safety follow-up (serious, grade 3 or 4 adverse events) over 24 weeks in children of the pharmacokinetic substudies; type: in vivo, human
Method: Children enrolled in the pharmacokinetic substudies attended study visits following the main ODYSSEY trial protocol (visits every 12 weeks after week 4 from enrolment). Participants whose dose was increased to 30 mg dispersible tablets or the 50 mg film-coated tablet had additional safety visits at weeks 2, 4, and 12 after dose adaptation. At each visit, we did a clinical assessment, including haematology and biochemistry safety parameters. We ascertained serious adverse events (defined according to International Conference on Harmonisation Guideline for Good Clinical Practice), grade 3 and 4 clinical and laboratory events, and events resulting in modification of ART (any grade).
All children consenting to inclusion in a pharmacokinetic substudy contributed safety data from the start of each pharmacokinetic dose for 24 weeks or to last follow-up visit, whichever was earlier; no participant commenced a second pharmacokinetic dose before completing 24 weeks on the first pharmacokinetic dose with the exception of children weighing 25 kg to less than 40 kg crossing over from the doses approved by the SRAs at the time of the study the 50 mg film-coated tablet, with which follow-up could be shorter. As part of the ODYSSEY trial, an independent endpoint review committee who were masked to trial groups (third drug of ART regimen) reviewed all reported adverse events. We did descriptive analysis reporting follow-up and adverse events by dose and weight band in STATA (version 15.0). An independent data monitoring committee reviewed conduct, pharmacokinetic, and safety data from these substudies. The ODYSSEY trial is registered with ClinicalTrials.gov, NCT02259127.

[5] = parameters: method as in earlier work; details: cited from earlier work
[6] = 20 to <25 kg, 9 patients (50 mg) FCT
[7] = 20 to <25 kg, 10 patients (30 mg) DT
[8] = 20 to <25 kg, 17 patients (25 mg) FCT
[9] = 25 to <30 kg, 17 patients (25 mg) FCT
[10] = 25 to <30 kg, 17 patients (50 mg) FCT
[11] = 30 to <40 kg, 11 patients (35 mg) FCT
[12] = 30 to <40 kg, 11 patients (50 mg) FCT

## C[C@@H]1CCO[C@H]2Cn3cc(C(=O)NCc4ccc(F)cc4F)c(=O)c(O)c3C(=O)N12 [dolutegravir]
[1]; high fat meal
  Increase of C24 with food compared with fasting: 73%
[1]; low fat meal
  Increase of C24 with food compared with fasting: 33%
[1]; moderate fat meal
  Increase of C24 with food compared with fasting: 45%
[2]; human, 24 h
  Children with individual Ctrough below 0·32 mg/L (in vivo EC90): 12 (30%) n (%)
[2]; human, in vivo
  AUC0-24h / Dose geometric mean ratio (90% CI), 50 mg FCT vs 25/35 mg FCT: 0∙91 (0∙85-0∙97)
  Cmax / Dose geometric mean ratio (90% CI), 50 mg FCT vs 25/35 mg FCT: 0∙89 (0∙82-0∙96)
  GM Cmax higher than in adults on 50 mg twice-daily: 32%
[2]; human, in vivo, 50 mg
  GM Cmax higher than in adults on 50 mg twice-daily: 17%
[2]; human, in vivo, 24 h
  Ctrough / Dose geometric mean ratio (90% CI), 50 mg FCT vs 25/35 mg FCT: 0∙98 (0∙87-1∙10)
  Ctrough geometric mean ratio (90% CI), 50 mg FCT vs 30 mg DT: 0∙99 (0∙57-1∙71)
[2]; in vivo
  Equivalence, 50 mg FCT vs 30 mg DT: Suggested
[3]; 10 mg film-coated tablet once daily
  Sustained virological response rate (plasma HIV-1 RNA <50 copies per mL): 79%
[3]; 50 mg film-coated tablet once daily
  Sustained virological response rate (plasma HIV-1 RNA <50 copies per mL): 88%
[4]; 17 patients (25 mg) FCT
  Total adverse events (grade 3 or 4 or serious adverse event): 3 (18%) n (%)
[4]; [6]
  Anaemia (grade 3 or 4 asymptomatic laboratory event): 0 n (%)
  Cryptococcal meningitis (grade 3 or 4 clinical adverse event): 0 n (%)
  Grade 3 or 4 asymptomatic laboratory events: 0 n (%)
  Grade 3 or 4 clinical adverse events: 0 n (%)
  Neutropenia (grade 3 or 4 asymptomatic laboratory event): 0 n (%)
  Thrombocytopenia and raised transaminases (grade 3 or 4 asymptomatic laboratory event): 0 n (%)
[4]; [7]
  Anaemia (grade 3 or 4 asymptomatic laboratory event): 0 n (%)
  Cryptococcal meningitis (grade 3 or 4 clinical adverse event): 0 n (%)
  Grade 3 or 4 asymptomatic laboratory events: 0 n (%)
  Grade 3 or 4 clinical adverse events: 0 n (%)
  Neutropenia (grade 3 or 4 asymptomatic laboratory event): 0 n (%)
  Thrombocytopenia and raised transaminases (grade 3 or 4 asymptomatic laboratory event): 0 n (%)
[4]; [8]
  Anaemia (grade 3 or 4 asymptomatic laboratory event): 0 n (%)
  Cryptococcal meningitis (grade 3 or 4 clinical adverse event): 0 n (%)
  Grade 3 or 4 asymptomatic laboratory events: 3 (18%) n (%)
  Grade 3 or 4 clinical adverse events: 0 n (%)
[4]; [9]
  Anaemia (grade 3 or 4 asymptomatic laboratory event): 0 n (%)
  Cryptococcal meningitis (grade 3 or 4 clinical adverse event): 0 n (%)
  Grade 3 or 4 asymptomatic laboratory events: 0 n (%)
  Grade 3 or 4 clinical adverse events: 0 n (%)
  Neutropenia (grade 3 or 4 asymptomatic laboratory event): 0 n (%)
  Thrombocytopenia and raised transaminases (grade 3 or 4 asymptomatic laboratory event): 0 n (%)
[4]; [10]
  Anaemia (grade 3 or 4 asymptomatic laboratory event): 0 n (%)
  Cryptococcal meningitis (grade 3 or 4 clinical adverse event): 0 n (%)
  Grade 3 or 4 asymptomatic laboratory events: 1 (6%) n (%)
  Grade 3 or 4 clinical adverse events: 0 n (%)
  Neutropenia (grade 3 or 4 asymptomatic laboratory event): 1 (6%) n (%)
  Thrombocytopenia and raised transaminases (grade 3 or 4 asymptomatic laboratory event): 0 n (%)
  Total adverse events (grade 3 or 4 or serious adverse event): 1 (6%) n (%)
[4]; 28 children weighing 25 kg or more on 50 mg film-coated tablets, follow-up 24 weeks
  Reportable adverse events: three
[4]; [11]
  Anaemia (grade 3 or 4 asymptomatic laboratory event): 0 n (%)
  Cryptococcal meningitis (grade 3 or 4 clinical adverse event): 0 n (%)
  Grade 3 or 4 asymptomatic laboratory events: 0 n (%)
  Grade 3 or 4 clinical adverse events: 0 n (%)
  Neutropenia (grade 3 or 4 asymptomatic laboratory event): 0 n (%)
  Thrombocytopenia and raised transaminases (grade 3 or 4 asymptomatic laboratory event): 0 n (%)
[4]; [12]
  Anaemia (grade 3 or 4 asymptomatic laboratory event): 1 (9%) n (%)
  Grade 3 or 4 asymptomatic laboratory events: 1 (9%) n (%)
  Grade 3 or 4 clinical adverse events: 1 (9%) n (%)
  Neutropenia (grade 3 or 4 asymptomatic laboratory event): 0 n (%)
  Thrombocytopenia and raised transaminases (grade 3 or 4 asymptomatic laboratory event): 0 n (%)
  Total adverse events (grade 3 or 4 or serious adverse event): 2 (18%) n (%)
[4]; 30 to <40 kg, 11 patients (50 mg) FCT, serious adverse event
  Cryptococcal meningitis (grade 3 or 4 clinical adverse event): 1 (9%) ^** n (%)
[4]; 47 children on 50 mg film-coated tablet or 30 mg dispersible tablets, reporting clinicians and endpoint review committee
  Adverse events considered related to dolutegravir: none
[5]
  Bioequivalence of 30 mg dose as six 5 mg dispersible tablets to 50 mg film-coated tablet: bioequivalent
